Measured values published in ChEMBL document CHEMBL4020724, “Selective HDAC inhibitors with potent oral activity against leukemia and colorectal cancer: Design, structure-activity relationship and anti-tumor activity study” (Eur J Med Chem, 2017).
The source made the active and inactive calls. No cut-off for these calls is given here.

How the values were obtained:
Histone deacetylase 1 = Histone deacetylase 1 (Homo sapiens, UniProt Q13547); assay: Inhibition of HDAC1 (unknown origin) using Boc-Lys (acetyl)-AMC as substrate incubated for 10 mins followed by substrate addition measured after 30 mins by fluorescence assay
Chain of Histone deacetylase 1 (Q13547 whole entry): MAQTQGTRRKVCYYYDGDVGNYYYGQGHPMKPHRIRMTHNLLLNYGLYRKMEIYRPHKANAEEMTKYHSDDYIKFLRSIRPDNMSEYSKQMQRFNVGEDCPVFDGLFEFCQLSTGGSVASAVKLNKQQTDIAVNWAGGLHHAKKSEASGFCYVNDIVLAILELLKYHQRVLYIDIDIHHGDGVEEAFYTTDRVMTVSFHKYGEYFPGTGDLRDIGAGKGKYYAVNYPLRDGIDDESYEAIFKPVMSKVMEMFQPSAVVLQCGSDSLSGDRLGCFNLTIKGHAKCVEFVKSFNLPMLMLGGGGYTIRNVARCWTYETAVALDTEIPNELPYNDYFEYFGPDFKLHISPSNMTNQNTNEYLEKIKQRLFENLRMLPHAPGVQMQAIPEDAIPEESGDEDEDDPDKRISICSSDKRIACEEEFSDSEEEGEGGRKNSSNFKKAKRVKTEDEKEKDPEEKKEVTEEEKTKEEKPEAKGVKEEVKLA

Histone deacetylase 3 = Histone deacetylase 3 (Homo sapiens, UniProt O15379); assay: Inhibition of HDAC3 (unknown origin) using Boc-Lys (acetyl)-AMC as substrate incubated for 10 mins followed by substrate addition measured after 30 mins by fluorescence assay
Chain of Histone deacetylase 3 (O15379 whole entry): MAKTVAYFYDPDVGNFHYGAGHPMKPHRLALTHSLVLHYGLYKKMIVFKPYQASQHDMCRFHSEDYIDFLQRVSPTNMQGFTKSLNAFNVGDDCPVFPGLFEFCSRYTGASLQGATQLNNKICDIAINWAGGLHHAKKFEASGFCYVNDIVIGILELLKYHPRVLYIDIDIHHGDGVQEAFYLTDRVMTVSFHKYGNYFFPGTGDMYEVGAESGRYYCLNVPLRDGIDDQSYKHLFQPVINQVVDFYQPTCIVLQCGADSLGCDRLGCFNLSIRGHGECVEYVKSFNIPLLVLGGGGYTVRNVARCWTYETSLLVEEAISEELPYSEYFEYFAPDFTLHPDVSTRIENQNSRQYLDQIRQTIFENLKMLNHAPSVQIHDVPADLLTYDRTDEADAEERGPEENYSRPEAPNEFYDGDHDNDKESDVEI

Histone deacetylase 2 = Histone deacetylase 2 (Homo sapiens, UniProt Q92769); assay: Inhibition of HDAC2 (unknown origin) using Boc-Lys (acetyl)-AMC as substrate incubated for 10 mins followed by substrate addition measured after 30 mins by fluorescence assay
Chain of Histone deacetylase 2 (Q92769 whole entry): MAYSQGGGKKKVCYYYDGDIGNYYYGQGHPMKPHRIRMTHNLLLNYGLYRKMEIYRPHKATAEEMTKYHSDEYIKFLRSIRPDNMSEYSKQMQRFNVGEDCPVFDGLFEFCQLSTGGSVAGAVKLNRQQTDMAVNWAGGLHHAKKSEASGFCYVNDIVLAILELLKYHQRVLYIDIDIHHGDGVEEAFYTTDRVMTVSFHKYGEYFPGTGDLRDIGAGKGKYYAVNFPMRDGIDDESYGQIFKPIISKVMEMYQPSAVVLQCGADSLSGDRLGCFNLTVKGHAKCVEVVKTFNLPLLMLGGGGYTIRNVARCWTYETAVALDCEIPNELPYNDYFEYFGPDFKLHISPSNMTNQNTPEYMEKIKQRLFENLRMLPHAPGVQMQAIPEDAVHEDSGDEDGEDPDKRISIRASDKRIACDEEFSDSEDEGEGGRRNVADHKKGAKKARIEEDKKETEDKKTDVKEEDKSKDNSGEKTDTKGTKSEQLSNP

[1] = Inhibition of class 1 HDAC in human HL60 cells using Boc-Ac-Lys-AMC as substrate incubated for 3 hrs followed by substrate addition measured after 3 hrs by fluorescence assay; format: cell-based; conditions: HL-60, 3 h
HL-60 [2] = assay: cells; conditions: Homo sapiens, HL-60, 48 h
Description: Antiproliferative activity against human HL60 cells after 48 hrs by MTT assay

Histone deacetylase 4 = Histone deacetylase 4 (Homo sapiens, UniProt P56524); assay: Inhibition of HDAC4 (unknown origin) using Boc-Lys (triflouroacetyl)-AMC as substrate incubated for 10 mins followed by substrate addition measured after 30 mins by fluorescence assay
Chain of Histone deacetylase 4 (P56524 whole entry): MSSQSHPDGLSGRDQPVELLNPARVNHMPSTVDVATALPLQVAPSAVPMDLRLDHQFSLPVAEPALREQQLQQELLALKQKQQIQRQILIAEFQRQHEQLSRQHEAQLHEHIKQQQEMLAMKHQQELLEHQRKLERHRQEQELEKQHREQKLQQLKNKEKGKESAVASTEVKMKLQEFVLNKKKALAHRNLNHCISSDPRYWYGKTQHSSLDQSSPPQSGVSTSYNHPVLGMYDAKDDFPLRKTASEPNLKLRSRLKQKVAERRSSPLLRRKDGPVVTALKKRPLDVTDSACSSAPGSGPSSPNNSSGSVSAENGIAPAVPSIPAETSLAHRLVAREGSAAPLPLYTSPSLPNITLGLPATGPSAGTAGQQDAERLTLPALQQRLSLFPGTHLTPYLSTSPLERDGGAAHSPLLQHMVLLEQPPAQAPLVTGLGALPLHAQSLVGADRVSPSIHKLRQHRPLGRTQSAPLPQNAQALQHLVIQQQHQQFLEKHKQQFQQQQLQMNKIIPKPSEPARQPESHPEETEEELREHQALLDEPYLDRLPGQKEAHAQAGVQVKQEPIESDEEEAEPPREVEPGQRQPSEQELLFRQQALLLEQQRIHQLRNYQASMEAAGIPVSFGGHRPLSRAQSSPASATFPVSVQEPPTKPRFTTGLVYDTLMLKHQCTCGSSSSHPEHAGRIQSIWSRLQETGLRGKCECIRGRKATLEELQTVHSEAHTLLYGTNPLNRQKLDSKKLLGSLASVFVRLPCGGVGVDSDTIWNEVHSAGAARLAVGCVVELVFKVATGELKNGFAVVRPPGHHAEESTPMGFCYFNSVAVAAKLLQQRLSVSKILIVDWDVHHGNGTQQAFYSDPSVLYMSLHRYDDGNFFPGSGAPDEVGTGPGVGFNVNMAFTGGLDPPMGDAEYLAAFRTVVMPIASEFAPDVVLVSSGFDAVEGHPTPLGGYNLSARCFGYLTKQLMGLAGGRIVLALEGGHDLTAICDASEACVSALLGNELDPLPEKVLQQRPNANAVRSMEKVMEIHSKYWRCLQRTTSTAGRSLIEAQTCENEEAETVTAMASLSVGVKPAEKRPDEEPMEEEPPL

Histone deacetylase 8 = target: T1, Histone deacetylase 8 (Homo sapiens, UniProt Q9BY41); assay: Inhibition of HDAC8 (unknown origin) using Boc-Lys (acetyl)-AMC as substrate incubated for 10 mins followed by substrate addition measured after 30 mins by fluorescence assay
T1 sequence (Q9BY41 whole entry): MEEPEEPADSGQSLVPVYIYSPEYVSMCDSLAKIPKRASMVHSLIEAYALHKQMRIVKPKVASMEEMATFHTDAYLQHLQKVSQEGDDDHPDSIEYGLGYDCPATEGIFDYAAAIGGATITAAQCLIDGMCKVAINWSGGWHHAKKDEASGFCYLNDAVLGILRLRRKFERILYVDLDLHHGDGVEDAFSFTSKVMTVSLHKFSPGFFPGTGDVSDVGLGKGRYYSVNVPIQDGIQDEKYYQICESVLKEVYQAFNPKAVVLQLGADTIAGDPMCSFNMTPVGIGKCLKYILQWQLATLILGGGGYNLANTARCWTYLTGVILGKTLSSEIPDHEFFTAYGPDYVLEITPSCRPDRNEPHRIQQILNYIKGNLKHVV

[3] = target: T2, Protein deacetylase HDAC6 (Homo sapiens, UniProt Q9UBN7); assay: Inhibition of HDAC6 (unknown origin) using Boc-Lys (acetyl)-AMC as substrate incubated for 10 mins followed by substrate addition measured after 30 mins by fluorescence assay
T2 sequence (Q9UBN7 whole entry): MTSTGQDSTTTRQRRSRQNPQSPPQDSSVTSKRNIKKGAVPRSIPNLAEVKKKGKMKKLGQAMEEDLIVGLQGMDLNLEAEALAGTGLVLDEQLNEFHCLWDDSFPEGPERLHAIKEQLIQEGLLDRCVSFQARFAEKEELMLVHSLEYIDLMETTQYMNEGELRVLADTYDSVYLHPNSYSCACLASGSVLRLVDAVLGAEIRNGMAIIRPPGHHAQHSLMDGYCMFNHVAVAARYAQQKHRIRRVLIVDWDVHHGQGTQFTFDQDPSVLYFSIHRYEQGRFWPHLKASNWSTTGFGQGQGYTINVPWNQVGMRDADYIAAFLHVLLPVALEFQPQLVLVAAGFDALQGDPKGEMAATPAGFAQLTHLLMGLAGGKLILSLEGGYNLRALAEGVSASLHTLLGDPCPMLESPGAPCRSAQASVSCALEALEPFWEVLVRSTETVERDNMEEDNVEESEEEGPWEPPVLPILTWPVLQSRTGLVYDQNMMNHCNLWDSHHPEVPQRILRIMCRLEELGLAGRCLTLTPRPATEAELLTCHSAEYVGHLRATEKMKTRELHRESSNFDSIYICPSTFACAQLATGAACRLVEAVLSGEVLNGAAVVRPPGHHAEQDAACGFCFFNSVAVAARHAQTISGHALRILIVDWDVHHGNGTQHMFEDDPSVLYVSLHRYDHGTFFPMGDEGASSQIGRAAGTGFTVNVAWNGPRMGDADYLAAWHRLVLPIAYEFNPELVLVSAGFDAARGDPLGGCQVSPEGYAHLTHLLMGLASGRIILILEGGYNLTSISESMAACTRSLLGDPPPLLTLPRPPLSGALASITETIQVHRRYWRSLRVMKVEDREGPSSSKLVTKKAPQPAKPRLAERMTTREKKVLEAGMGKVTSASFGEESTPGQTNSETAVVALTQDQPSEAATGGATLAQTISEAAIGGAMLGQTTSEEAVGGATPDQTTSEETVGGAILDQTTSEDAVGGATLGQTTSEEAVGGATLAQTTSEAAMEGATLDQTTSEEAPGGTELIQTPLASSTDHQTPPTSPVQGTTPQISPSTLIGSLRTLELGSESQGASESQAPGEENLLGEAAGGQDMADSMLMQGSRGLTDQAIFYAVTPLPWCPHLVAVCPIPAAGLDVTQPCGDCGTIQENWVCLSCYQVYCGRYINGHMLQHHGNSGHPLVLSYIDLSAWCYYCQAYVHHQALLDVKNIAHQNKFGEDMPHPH

Mus musculus = assay: Toxicity in BALB/c nude mouse xenografted with human HCT116 cells assessed as body weight at 100 mg/kg/day administered via oral gavage for 16 days (reference value: 19.91 +/- 1.26 g); format: organism-based; conditions: in vivo, 384 h
U-266 = assay: Antiproliferative activity against human U266 cells after 48 hrs by MTT assay; format: functional, cell-based; conditions: U-266, 48 h
[4] = target: T3, Histone deacetylase (HDAC1 and HDAC2) (Homo sapiens) (UniProt Q13547+Q92769); assay: Inhibition of HDAC1/2 in human HL60 cells assessed as increase in acetylated histone H4 level at 1 to 5 uM after 48 hrs by Western blot analysis; format: cell-based
T3 sequence (Q13547 whole entry, looked up): as the sequence (Q13547 whole entry) above
T3 sequence (Q92769 whole entry, looked up): as the sequence (Q92769 whole entry) above

HCT-116 = assay: cells; conditions: Homo sapiens, HCT-116, 48 h
U-937 = assay: cells; conditions: Homo sapiens, U-937, 48 h
Description: Antiproliferative activity against human U937 cells after 48 hrs by MTT assay

[5] = target: T3, Histone deacetylase (HDAC1 and HDAC2) (Homo sapiens); assay: Inhibition of HDAC1/2 in human HL60 cells assessed as increase in acetylated histone H3 level at 1 to 5 uM after 48 hrs by Western blot analysis; format: cell-based
HL-60 [6] = assay: Induction of apoptosis in human HL60 cells assessed as increase in cleaved caspase-3 level at 1 to 5 uM after 48 hrs by Western blot analysis; format: functional, cell-based
HEL = assay: Antiproliferative activity against HEL cells after 48 hrs by MTT assay; format: functional, cell-based; conditions: Homo sapiens
K562 = assay: cells; conditions: Homo sapiens, K562, 48 h
cells = conditions: Homo sapiens, ES-2, 48 h
Description: Antiproliferative activity against human ES2 cells after 48 hrs by MTT assay

HL-60 [7] = assay: Induction of apoptosis in human HL60 cells assessed as increase in cleaved PARP level at 1 to 5 uM after 48 hrs by Western blot analysis; format: functional, cell-based
HL-60 [8] = assay: Induction of apoptosis in human HL60 cells assessed as decrease in procaspase-3 level at 1 to 5 uM after 48 hrs by Western blot analysis; format: functional, cell-based

Row | Compound | IC50 (Histone deacetylase 1) | IC50 (Histone deacetylase 3) | IC50 (Histone deacetylase 2) | IC50 [1] | IC50 (HL-60 [2]) | further results
1 | COc1ccc(C(=O)N[C@H](COc2ccc(/C=C/C(=O)Nc3ccccc3N)cc2)Cc2c[nH]c3ccccc23)cc1 | 284 nM | 261 nM | 217 nM |  |  | 
2 | COc1ccc(C(=O)N[C@@H](Cc2c[nH]c3ccccc23)C(=O)Nc2ccc(C(=O)Nc3ccccc3N)cc2)cc1 | 49.6 nM | 227 nM | 441 nM | 850 nM | 2140 nM | 
3 | COc1ccc(C(=O)N[C@@H](Cc2c[nH]c3ccccc23)C(=O)NCCCCCC(=O)Nc2ccc(F)cc2N)cc1 | 511 nM | 110 nM | 908 nM |  |  | IC50 (Histone deacetylase 4): > 100000 nM; IC50 (Histone deacetylase 8): > 100000 nM; IC50 [3]: > 100000 nM
4 | Nc1ccccc1NC(=O)c1ccc(CNC(=O)[C@H](Cc2c[nH]c3ccccc23)NC(=O)c2cccs2)cc1 |  |  |  | 780 nM | 1740 nM | 
5 | COc1ccc(C(=O)N[C@@H](Cc2c[nH]c3ccccc23)C(=O)Nc2ccc(C(=O)Nc3ccc(F)cc3N)cc2)cc1 | 91.7 nM | 167 nM | 121 nM |  |  | 
6 | O=C(CCCCCCC(=O)Nc1ccccc1)NO [VORINOSTAT] |  |  |  |  |  | Activity (Mus musculus): 21.23 g
7 | COc1ccc(C(=O)N[C@@H](Cc2c[nH]c3ccccc23)C(=O)NCc2ccc(C(=O)Nc3cc(-c4ccccc4)ccc3N)cc2)cc1 | 58.4 nM | 30900 nM | 311 nM |  |  | IC50 (U-266): > 20000 nM; inhibition [4]: Active; IC50 (HCT-116): > 20000 nM; IC50 (U-937): > 20000 nM; inhibition [5]: Active; Activity (HL-60 [6]): inactive; IC50 (HEL): > 20000 nM; IC50 (K562): 14000 nM; IC50 (cells): > 20000 nM; Activity (HL-60 [7]): inactive; Activity (HL-60 [8]): inactive
8 | COc1ccc(C(=O)N[C@H](CNCc2ccc(C(=O)Nc3ccccc3N)cc2)Cc2c[nH]c3ccccc23)cc1 | 29.9 nM | 223 nM | 21.2 nM |  |  | 
9 | COc1ccc(C(=O)N[C@H](COc2ccc(CC(=O)Nc3ccccc3N)cc2)Cc2c[nH]c3ccccc23)cc1 | > 20000 nM | > 20000 nM | > 20000 nM | > 10000 nM | > 20000 nM | 
10 | COc1ccc(C(=O)N[C@@H](Cc2c[nH]c3ccccc23)C(=O)NCc2ccc(C(=O)Nc3cc(-c4cccs4)ccc3N)cc2)cc1 | 58.8 nM | 8010 nM | 320 nM |  |  | IC50 (U-266): > 20000 nM; IC50 (HCT-116): > 20000 nM; IC50 (U-937): > 20000 nM; IC50 (HEL): > 20000 nM; IC50 (cells): > 20000 nM
11 | Nc1ccccc1NC(=O)c1ccc(CNC(=O)[C@H](Cc2c[nH]c3ccccc23)NC(=O)c2ccc(C(F)(F)F)cc2)cc1 |  |  |  | 1980 nM | 3090 nM | 
12 | Nc1ccccc1NC(=O)c1ccc(CNC(=O)[C@H](Cc2c[nH]c3ccccc23)NC(=O)c2ccccn2)cc1 |  |  |  | 1610 nM | 6090 nM | 
13 | COc1ccc(C(=O)N[C@@H](Cc2c[nH]c3ccccc23)C(=O)NCCCCCC(=O)Nc2cc(-c3ccccc3)ccc2N)cc1 | 55.5 nM | 5630 nM | 490 nM |  |  | IC50 (U-266): > 20000 nM; IC50 (HCT-116): > 20000 nM; IC50 (U-937): > 20000 nM; IC50 (cells): > 20000 nM
14 | COc1ccc(C(=O)N[C@@H](Cc2c[nH]c3ccccc23)C(=O)NCCCCCC(=O)Nc2cc(-c3cccs3)ccc2N)cc1 | 48 nM | 3570 nM | 337 nM |  |  | IC50 (Histone deacetylase 4): > 100000 nM; IC50 (U-266): > 20000 nM; IC50 (HCT-116): > 20000 nM; IC50 (U-937): > 20000 nM; IC50 (Histone deacetylase 8): > 100000 nM; IC50 [3]: > 100000 nM; IC50 (cells): > 20000 nM
15 | Nc1ccccc1NC(=O)c1ccc(CNC(=O)[C@H](Cc2c[nH]c3ccccc23)NC(=O)c2ccco2)cc1 |  |  |  | 910 nM | 2400 nM | 
16 | COc1ccc(C(=O)N[C@@H](Cc2c[nH]c3ccccc23)C(=O)NCCCCCC(=O)Nc2ccccc2N)cc1 | 58.6 nM | 42.9 nM | 296 nM |  |  | 
17 | COc1ccc(C(=O)N[C@H](COc2ccc(C(=O)Nc3ccccc3N)cc2)Cc2c[nH]c3ccccc23)cc1 | 14.7 nM | 90 nM | 111 nM |  |  | 
18 | CN(C)c1ccc(C(=O)N[C@@H](Cc2c[nH]c3ccccc23)C(=O)NCc2ccc(C(=O)Nc3ccccc3N)cc2)cc1 |  |  |  | 1510 nM | 2380 nM | 
19 | COc1ccc(C(=O)N[C@@H](Cc2c[nH]c3ccccc23)C(=O)NCc2ccc(C(=O)Nc3ccc(F)cc3N)cc2)cc1 | 171 nM | 243 nM | 179 nM |  |  | 
20 | Nc1ccccc1NC(=O)c1ccc(CNC(=O)[C@H](Cc2c[nH]c3ccccc23)NC(=O)c2cnccn2)cc1 |  |  |  | 1020 nM | 5850 nM | 
21 | COc1ccc(C(=O)N[C@@H](Cc2c[nH]c3ccccc23)C(=O)Nc2ccc(C(=O)Nc3cc(-c4cccs4)ccc3N)cc2)cc1 | 36.5 nM | 62500 nM | 314 nM |  |  | 
